The values that follow come from patent EP1862549A2, “Target of RNAIII activating protein (TRAP)” (Balaban, Naomi, priority 1998, dated 2007).

The subject of one assay is TRAP. The settings on record: wild type early exponential S. aureus cells incubated in PFB with 32P; PBS as control.
In the next assay the test system is S. aureus. The settings on record: animals treated with RIP; cited from earlier work.

Procedure for TRAP: Wild type early exponential S. aureus cells were incubated for 1 hr in phosphate free buffer (PFB) together with ^32P, with RAP (in PBS) or with PBS only as a control. […] Cells were collected, applied to SDS PAGE, and the gel autoradiographed. The autoradiogram was scanned and the density of the bands determined.
Wild type early exponential S. aureus cells were incubated in PFB with ^32P with either PBS alone, RIP, RAP, or a combination of RIP and RAP. […] The cells were collected, applied to SDS PAGE, the gel autoradiographed, and the relative amounts of TRAP phosphorylation and RNAIII transcription levels determined (Balaban et al. Proc. Natl. Acad. Sci. U.S.A. 92:1619-1623 (1995)). […] The relative levels of TRAP phosphorylation (Fig. 14) and RNAIII transcription (Fig. 15) in the presence of PBS alone (control), RIP, RAP, or RIP and RAP were also determined.

For YSPXTNF (SEQ ID NO:3) [RIP], the TRAP phosphorylation result with TRAP is recorded as “inhibited”. Besides, in the assay on S. aureus, the “protection from an S. aureus infection” value is “protected”.
